The subject of one data set is mice. Kind of data set: T-maze Continuous Alternation Task (T-CAT), scopolamine-induced cognitive impairment. The note with it: mouse; dosed orally at 10 mg/kg; scopolamine-induced deficit. Format: in vivo. An excerpt: The T-maze Continuous Alternation Task (T-CAT) measures spontaneous alternation, which is the innate tendency of mice to alternate free choices in a T-maze over a series of successive runs. This sequential procedure relies on working memory and is sensitive to various pharmacological manipulations affecting memory processes.
The T-maze apparatus is made of gray Plexiglas with a main stem (55 cm long×10 cm wide×25 cm high) and two arms (30 cm long×10 cm wide×25 cm high) positioned at 90 degree angle relative to the main stem. A start box (15 cm long×10 cm wide) is separated from the main stem by a sliding door. Sliding doors are also provided to close specific arms during the forced-choice alternation task.
The experimental protocol consists of one single session, which starts with 1 “forced-choice” trial, followed by 14 “free-choice” trials. In the first “forced-choice” trial, the animal is confined for 5 s in the start arm and then it is released while either the left or right goal arm is blocked by a sliding door. The animal will negotiate the maze, eventually enter the open goal arm, and return to the start position. Immediately after the return to the start position, the left or right goal door is opened and the animal is allowed to choose freely between the left and right goal arm (“free choice” trials). The animal is considered to have entered an arm when it places four paws in the arm. A session is terminated and the animal is removed from the maze as soon as 14 free-choice trials have been performed or 10 minutes have elapsed, whichever event occurs first. The percentage of alternation over the 14 free-choice trials is determined for each mouse and is used as an index of working memory performance. This percentage is defined as entry in a different arm of the T-maze over successive visits (i.e., left-right-left-right, etc).
Scopolamine administered 20 minutes prior the initiation of the T-maze session is used to induce disruption in the spontaneous alternation of mice. Test compounds are administered 60 minutes prior the start of the T-maze session in order to evaluate their ability to reverse the scopolamine effect.
The apparatus is cleaned between each animal using alcohol (70°). Urine and faeces are removed from the maze. During the trials, animal handling and the visibility of the operator are minimized as much as possible.
The compounds were dosed orally at 10 mg/kg.

Another data set concerns the target T1, rat α7 nAChRs (Rattus norvegicus, UniProt Q05941).
T1 construct: expressed in transfected cells; host or cells: GH4C1 cells (rat pituitary line) stably expressing α7 nAChR
The data set can be described thus: Automated planar patch clamp (Patchliner) electrophysiology, α7 nAChR PAM activity. Set-up: key to Type I or Type II: I: Type 1 predominately affects the peak current; Type II modulators affect the peak current and also delay the desensitization of the receptor. In kind it is cell-based. The note with it: for Type I or Type II: modulator type based on the electrophysiology trace; for activation at 3 µM: GH4-C1, 3 μM compound in the presence of acetylcholine, GH4C1 cells expressing rat α7 nAChRs, peak current, read-out: Peak potentiation at 3 μM compound. Here is the method:
Tested compounds were prepared by serial dilutions of 10 mM stock solution in DMSO to concentrations of the compound 1000 times higher than its final concentration. The DMSO stock solutions were then diluted 1:100 in the recording buffer bringing DMSO concentration to 1%. These intermediate solutions were further diluted 10 times with buffer to obtain final concentrations and lower DMSO concentration to 0.1%. […]
Compounds of the invention may be evaluated by electrophysiology using a Patchliner® (Nanion Technologies GmbH, Germany), an automated planar patch-clamp platform of medium throughput was used as a first step in electrophysiological assessment of α7 nAChR positive allosteric modulators (PAMs).
Briefly, intracellular (KCl—50 mM, NaCl—10 mM, KF—60 mM, EGTA—20 mM, HEPES—10 mM, pH—7.2, 285 mOsmol) and extracellular (NaCl—140 mM, KCl—4 mM, CaCl2—2 mM, MgCl2—1 mM, HEPES—10 mM, D-Glucose—5 mM, pH—7.4, 298 mOsmol) solutions were automatically pipetted onto NPC-16 chip (medium resistance ˜2.5-2.6 MΩ). Suspension of GH4C1 cells expressing rat α7 nAChRs was introduced in 4 wells of a medium resistance chip and suction was applied to attract cells in the holes. The extracellular solution was subsequently exchanged to high calcium solution (NaCl—80 mM, KCl—3 mM, CaCl2—45 mM, HEPES—10 mM, pH—7.4, 298 mOsmol) followed by gigaohm seal formation and obtaining whole-cell configuration. The rest of protocol was carried out in the high-calcium recording solution. Holding potential was −70 mV throughout the protocol. A control response to 60 or 100 μM of ACh was obtained first. Next, a cell was pre-incubated with compound of interest at 3 μM for ˜30 s after which the compound was co-applied with acetylcholine.
Amplitude of the responses was measured in HEKA Patchmaster software (HEKA Elektronik, Germany) and percentage of potentiation calculated. Recording was repeated […] a minimum of two replicates had been obtained per compound.
Compounds shown in Table 1 were evaluated by automated planar patch clamp on the Patchliner® as described in Example P2.1. […] The compounds are designated either as Type I or Type II modulators based on the electrophysiology trace. Type 1 predominately affects the peak current. Type II modulators affect the peak current and also delay the desensitization of the receptor.
Background: In patch-clamp work, channel activity is measured electrically.

Data on twelve compounds can be found in US9790173B2, “Alpha-7 nicotinic acetylcholine receptor modulators and uses thereof-I” (MERCK SHARP & DOHME CORP., priority 2012, dated 2017).

The melting point is the temperature, or range, at which the solid turns liquid.

T1 sequence (Q05941 23-502): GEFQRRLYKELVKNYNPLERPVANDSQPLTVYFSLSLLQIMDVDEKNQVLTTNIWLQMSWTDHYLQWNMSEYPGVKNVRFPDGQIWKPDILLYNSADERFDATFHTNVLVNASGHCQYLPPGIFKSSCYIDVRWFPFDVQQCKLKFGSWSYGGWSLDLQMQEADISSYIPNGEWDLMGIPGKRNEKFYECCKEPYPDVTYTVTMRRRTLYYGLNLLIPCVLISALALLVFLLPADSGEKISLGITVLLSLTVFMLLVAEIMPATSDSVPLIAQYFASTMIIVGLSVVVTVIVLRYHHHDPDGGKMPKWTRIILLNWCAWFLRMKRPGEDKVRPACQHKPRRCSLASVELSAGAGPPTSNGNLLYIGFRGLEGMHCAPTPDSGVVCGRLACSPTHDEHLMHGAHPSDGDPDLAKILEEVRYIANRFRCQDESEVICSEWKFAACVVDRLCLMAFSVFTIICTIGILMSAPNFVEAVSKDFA

As for `CC1(C)[C@@H](CNc2ccc(F)cc2OC(F)F)[C@@H]1c1ccc(S(N)(=O)=O)cc1` [Example 50, 4-[(1S,3S)-3-({[2-(difluoromethoxy)-4-fluorophenyl]amino}methyl)-2,2-dimethylcyclopropyl]benzenesulfonamide], the “T-maze % control at 10 mg/kg” value in the data set with mice is reported as 77 % control. Besides, the “Type I or Type II” value at rat α7 nAChRs is “II”.

Turning to `NS(=O)(=O)c1ccc([C@H]2C[C@@H]2CNc2ccc(F)cc2)cc1` [Example 3, ±trans 4-(2-{[(4-fluorophenyl)amino]methyl}cyclopropyl)benzenesulfonamide], the “T-maze % control at 10 mg/kg” value in the data set with mice was 62 % control. Further, on rat α7 nAChRs, the activation at 3 µM is 969% and the “Type I or Type II” value is reported as “I”.

The compound `CC1(C)[C@H](CNc2cccc(Cl)c2)[C@H]1c1ccc(S(N)(=O)=O)cc1` [Example 24, ±trans 4-[3-{[(3-chlorophenyl)amino]methyl}-2,2-dimethylcyclopropyl]benzenesulfonamide] registered a melting point of 120 to 122 °C. For the same compound, at rat α7 nAChRs, the activation at 3 µM is 901% and the “Type I or Type II” value is on record as “II”.

As to `CC1(C)[C@H](CNc2ccc(F)cc2)[C@H]1c1ccc(S(N)(=O)=O)cc1` [Example 13, ±trans 4-[3-{[(4-fluorophenyl)amino]methyl}-2,2-dimethylcyclopropyl]benzenesulfonamide], the “T-maze % control at 10 mg/kg” value in the data set on mice was determined as 80 % control. For the same compound, the “Type I or Type II” value at rat α7 nAChRs is listed as “II”.

`COc1ccc(Cl)cc1NC[C@@H]1[C@@H](c2ccc(S(N)(=O)=O)cc2)C1(C)C` [Example 20, 4-[(1R,3R)-3-{[(5-chloro-2-methoxyphenyl)amino]methyl}-2,2-dimethylcyclopropyl]benzenesulfonamide]: the “T-maze % control at 10 mg/kg” value with mice is on record as 100 % control. The “Type I or Type II” value on rat α7 nAChRs is reported as “I”.

On to `COc1ccc(Cl)cc1NC[C@H]1[C@H](c2ccc(S(N)(=O)=O)cc2)C1(C)C` [Example 21, 4-[(1S,3S)-3-{[(5-chloro-2-methoxyphenyl)amino]methyl}-2,2-dimethylcyclopropyl]benzenesulfonamide], for which the “T-maze % control at 10 mg/kg” value in the data set on mice was 100 % control. Also, the “Type I or Type II” value on rat α7 nAChRs is “II”.

Consider `COc1ncccc1NC[C@@H]1[C@@H](c2ccc(S(N)(=O)=O)cc2)C1(C)C` [Example 42, ±trans 4-(3-{[(2-methoxypyridin-3-yl)amino]methyl}-2,2-dimethylcyclopropyl)benzenesulfonamide], for which the melting point was 98 to 100 °C. Also, the “Type I or Type II” value on rat α7 nAChRs is given as “II”.

`COc1ccc(NC[C@@H]2[C@@H](c3ccc(S(N)(=O)=O)cc3)C23CCCC3)c(OC)n1` [Example 9, ±trans 4-(2-{[(2,6-dimethoxypyridin-3-yl)amino]methyl}spiro[2.4]hept-1-yl)benzenesulfonamide]: the melting point lay within 56 to 58 °C. Further, at rat α7 nAChRs, the “Type I or Type II” value is reported as “II”.

`Cc1cc(F)c(F)cc1NC[C@@H]1[C@@H](c2ccc(S(N)(=O)=O)cc2)C1(C)C` [Example 30, 4-[(1R,3R)-3-{[(4,5-difluoro-2-methylphenyl)amino]methyl}-2,2-dimethylcyclopropyl]benzenesulfonamide]: the melting point is 210 to 212 °C. Moreover, the “T-maze % control at 10 mg/kg” value with mice is listed as 70 % control. Also, at rat α7 nAChRs, the activation at 3 µM turned out to be 419% and the “Type I or Type II” value is recorded as “I”.

As for `CC1(C)[C@H](CNc2ccc(F)cc2OC(F)F)[C@H]1c1ccc(S(N)(=O)=O)cc1` [Example 51, 4-[(1R,3R)-3-({[2-(difluoromethoxy)-4-fluorophenyl]amino}methyl)-2,2-dimethylcyclopropyl]benzenesulfonamide], the “T-maze % control at 10 mg/kg” value with mice turned out to be 81 % control. Further, at rat α7 nAChRs, the activation at 3 µM is 171% and the “Type I or Type II” value is “I”.

In turn, `COc1ccc(Cl)cc1NC[C@H]1C[C@@H]1Cc1ccc(S(N)(=O)=O)cc1` [Example 54, ±trans 4-{[-2-{[(5-chloro-2-methoxyphenyl)amino]methyl}cyclopropyl]methyl}benzenesulfonamide] returned a melting point of 126 to 128 °C. On rat α7 nAChRs, the activation at 3 µM is 574% and the “Type I or Type II” value is “I”.

Turning to `CC1(C)[C@@H](CNc2ccc(F)cc2C(F)(F)F)[C@@H]1c1ccc(S(N)(=O)=O)cc1` [Example 17, 4-[(1S,3S)-3-({[4-fluoro-2-(trifluoromethyl)phenyl]amino}methyl)-2,2-dimethylcyclopropyl]benzenesulfonamide], the “T-maze % control at 10 mg/kg” value in the data set with mice is reported as 100 % control. At rat α7 nAChRs, the “Type I or Type II” value is on record as “I”.
